The assay concerns the target human TGFβR1 (Homo sapiens (Human), UniProt P36897). Put plainly: TGFβR1 kinase activity assay (ADP-Glo method). Type of assay: biochemical. The conditions noted are these: ATP 5 uM, TGFβR1tide substrate, 60 minutes at room temperature. The procedure: The principle of the activity assay was that TGFβR1 phosphorylates the substrate TGFβR1tide, consuming ATP in the process. […] The specific experimental steps were as follows. Compounds were diluted 4-fold in DMSO in a dilution plate, with the final starting concentration of the compounds being 10 μM, across 10 concentration gradient points. The compounds were then further diluted 50-fold into the kinase reaction buffer and incubated on a shaker for 20 minutes. Kinase was formulated with an enzyme reaction buffer. 2 μl kinase was added to each well of the reaction plate. 1 μl of the compound diluted in buffer was added to each well, and then the plate was sealed with a sealing membrane and centrifuged at 1000 g for 30 seconds, leaving it at room temperature for 10 minutes. Solutions of TGFβR1tide and ATP were prepared with the kinase reaction buffer, and 2 μL of the TGFβR1tide/ATP solution was added to the reaction plate. The plate was sealed with a sealing film and centrifuged at 1000 g for 30 seconds. It was allowed to react at room temperature for 60 minutes. Subsequently, 4 μL of ADP-Glo was transferred to a 384-well reaction plate and centrifuged at 1000 rpm/min for 1 minute, followed by incubation at 25° C. for 40 minutes. Then, 8 μL of Detection solution was transferred to the 384-well reaction plate and centrifuged at 1000 rpm/min for 1 minute, after which it was incubated at 25° C. for 40 minutes. The RLU (Relative Luminescence Unit) signal was read using a BMG microplate reader, which was used to characterize the degree of kinase activity.
3.1 The inhibition rate was calculated as follows: inhibition rate of compound (% inh)=100%−(compound−positive control)/(negative control−positive control)*100%.
The IC50 (half inhibition concentration) of a compound was obtained using the following non-linear fitting equation, wherein data analysis was performed using Graphpad 7.0 software.
X: log value of compound concentration; and Y: inhibition rate (% inhibition)

The text below walks through data of US20250179094A1, “TGF-B INHIBITOR COMPOUND AND USE THEREOF” (Medinno Pharmaceutical Technology (Zhuhai) Co., Ltd., priority 2022, published 2025).

SMILES strings stand for the structures.

Chain of human TGFβR1 (P36897 34-503): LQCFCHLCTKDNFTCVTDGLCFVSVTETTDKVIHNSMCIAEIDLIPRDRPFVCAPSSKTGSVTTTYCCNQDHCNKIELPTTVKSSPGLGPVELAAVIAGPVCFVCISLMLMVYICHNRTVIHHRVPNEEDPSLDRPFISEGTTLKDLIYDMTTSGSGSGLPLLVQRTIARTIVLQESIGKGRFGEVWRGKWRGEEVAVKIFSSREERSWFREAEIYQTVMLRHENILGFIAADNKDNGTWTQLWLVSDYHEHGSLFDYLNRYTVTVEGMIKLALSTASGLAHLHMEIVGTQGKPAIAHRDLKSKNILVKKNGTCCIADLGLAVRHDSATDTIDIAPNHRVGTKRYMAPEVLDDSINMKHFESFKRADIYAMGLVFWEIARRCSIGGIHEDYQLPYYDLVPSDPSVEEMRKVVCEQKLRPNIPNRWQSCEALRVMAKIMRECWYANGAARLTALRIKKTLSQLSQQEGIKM

Usually IC50 stands for the concentration that gives 50% inhibition. High values mean weaker potency in that assay, low ones greater potency in that assay. Take `Cc1cccc(-c2nc3n(c2-c2ccnc(-c4nc5c([nH]4)CN(CC4CC(O)C4)C5)c2)CCC3)n1` (stereo not drawn) [Compound 26, 3-((2-(4-(2-(6-Methylpyridin-2-yl)-6,7-dihydro-5H-pyrrolo[1,2-a]imidazol-3-yl)pyridin-2-yl)-4,6-dihydropyrrolo[3,4-d]imidazol-5(1H)-yl)methyl)cyclobutanol]: the IC50 was 4.1 nM.

Molecule `CNC(=O)N1Cc2nc(-c3cc(-c4c(-c5cccc(C)n5)nc5n4CCC5)ccn3)[nH]c2C1` [Compound 28] showed an IC50 of 19 nM.

Molecule `Cc1cccc(-c2nc3n(c2-c2ccnc(-c4nc5c([nH]4)CN(C(=O)N(C)C)C5)c2)CCC3)n1` [Compound 29, N,N-Dimethyl-2-(4-(2-(6-methylpyridin-2-yl)-6,7-dihydro-5H-pyrrolo[1,2-a]imidazol-3-yl)pyridin-2-yl)-4,6-dihydropyrrolo[3,4-d]imidazol-5(1H)-carboxamide] gave an IC50 of 0.18 nM.

Consider `COC(=O)N1Cc2nc(-c3cc(-c4c(-c5cccc(C)n5)nc5n4CCC5)ccn3)[nH]c2C1` [Compound 30, Methyl 2-(4-(2-(6-Methylpyridin-2-yl)-6,7-dihydro-5H-pyrrolo[1,2-alimidazol-3-yl)pyridin-2-yl)-4,6-dihydropyrrolo[3,4-d]imidazol-5(1H)-carboxylate], for which the 50% inhibitory concentration (IC50) turned out to be 5.7 nM.

As for `CCN(C)C(=O)N1Cc2nc(-c3cc(-c4c(-c5cccc(C)n5)nc5n4CCC5)ccn3)[nH]c2C1` [Compound 32, N-Ethyl-N-methyl-2-(4-(2-(6-methylpyridin-2-yl)-6,7-dihydro-5H-pyrrolo[1,2-a]imidazol-3-yl)pyridin-2-yl)-4,6-dihydropyrrolo[3,4-d]imidazol-5(1H)-carboxamide], half-maximal inhibition (IC50) was put at 2.3 nM.

In the case of `Cc1cccc(-c2nn(C)cc2-c2ccnc(-c3nc4c([nH]3)CN(S(C)(=O)=O)C4)c2)n1` [Compound 39, 2-[4-(1-Methyl-3-(6-methylpyridin-2-yl)-1H-pyrazol-4-yl)pyridin-2-yl]-5-(methylsulfonyl)-1,4,5,6-tetrahydropyrrolo[3,4-d]imidazole], the IC50 stood at 2 nM.

As for `Cc1cccc(-c2nn(C)cc2-c2ccnc(-c3nc4c([nH]3)CN(C(=O)C3CC(O)C3)C4)c2)n1` (stereo not drawn) [Compound 42, (3-Hydroxycyclobutyl)(2-(4-(1-methyl-3-(6-methylpyridin-2-yl)-1H-pyrazol-4-yl)pyridin-2-yl)-4,6-dihydropyrrolo[3,4-d]imidazol-5(1H)-yl)ketone], half-maximal inhibition (IC50) required 27 nM.

On to `Cc1cccc(-c2nn(CC(C)O)cc2-c2ccnc(-c3nc4c([nH]3)CNC4)c2)n1` (stereo not drawn) [Compound 44, 3-(3-(6-Methylpyridin-2-yl)-4-(2-(1,4,5,6-tetrahydropyrrolo[3,4-d]imidazol-2-yl)pyridin-4-yl)-1H-pyrazol-1-yl)propan-2-ol], for which the IC50 was 6.2 nM.

With `Cc1cccc(-c2nn(C(C)C)cc2-c2ccnc(-c3nc4c([nH]3)CN(S(C)(=O)=O)C4)c2)n1` [Compound 46, 2-[4-(1-Isopropyl-3-(6-methylpyridin-2-yl)-1H-pyrazol-4-yl)pyridin-2-yl]-5-(methylsulfonyl)-1,4,5,6-tetrahydropyrrolo[3,4-d]imidazole], it took 1.7 nM to reach half-maximal inhibition (IC50).

Take `Cc1cccc(-c2nn(CC3CC3)cc2-c2ccnc(-c3nc4c([nH]3)CN(S(C)(=O)=O)C4)c2)n1` [Compound 47, 2-[4-(1-(Cyclopropylmethyl)-3-(6-methylpyridin-2-yl)-1H-pyrazol-4-yl)pyridin-2-yl]-5-(methylsulfonyl)-1,4,5,6-tetrahydropyrrolo[3,4-d]imidazole]: the IC50 was determined as 3.4 nM.

Take `Cc1cccc(-c2nn(Cc3ccccc3)cc2-c2ccnc(-c3nc4c([nH]3)CN(S(C)(=O)=O)C4)c2)n1` [Compound 48, 2-[4-(1-Benzyl-3-(6-methylpyridin-2-yl)-1H-pyrazol-4-yl)pyridin-2-yl]-5-(methylsulfonyl)-1,4,5,6-tetrahydropyrrolo[3,4-d]imidazole]: the IC50 was 1.6 nM.

For `Cc1cccc(-c2nn(CC3CC(O)C3)cc2-c2ccnc(-c3nc4c([nH]3)CN(S(C)(=O)=O)C4)c2)n1` (stereo not drawn) [Compound 49, 3-((3-(6-Methylpyridin-2-yl)-4-(2-(5-(methylsulfonyl)-1,4,5,6-tetrahydropyrrolo[3,4-d]imidazol-2-yl)pyridin-4-yl)-1H-pyrazol-1-yl)methyl)cyclobutanol], the IC50 was determined as 3 nM.

On to `Cc1cccc(-c2nn(Cc3ccc(F)cc3)cc2-c2ccnc(-c3nc4c([nH]3)CN(S(C)(=O)=O)C4)c2)n1` [Compound 50, 2-[4-(1-(4-Fluorobenzyl)-3-(6-methylpyridin-2-yl)-1H-pyrazol-4-yl)pyridin-2-yl]-5-(methylsulfonyl)-1,4,5,6-tetrahydropyrrolo[3,4-d]imidazole], for which the 50% inhibitory concentration (IC50) came out at 2.2 nM.

On to `Cc1cccc(-c2nn(Cc3ccccc3F)cc2-c2ccnc(-c3nc4c([nH]3)CN(S(C)(=O)=O)C4)c2)n1` [Compound 51, 2-[4-(1-(2-Fluorobenzyl)-3-(6-methylpyridin-2-yl)-1H-pyrazol-4-yl)pyridin-2-yl]-5-(methylsulfonyl)-1,4,5,6-tetrahydropyrrolo[3,4-d]imidazole], for which the IC50 was found to be 5.6 nM.

The molecule `CCS(=O)(=O)N1Cc2nc(-c3cc(-c4cn(C)nc4-c4cccc(C)n4)ccn3)[nH]c2C1` [Compound 52, 5-(Ethylsulfonyl)-2-[4-(1-methyl-3-(6-methylpyridin-2-yl)-1H-pyrazol-4-yl)pyridin-2-yl]-1,4,5,6-tetrahydropyrrolo[3,4-d]imidazole] showed an IC50 of 2.1 nM.

With `Cc1cccc(-c2nn(Cc3ccccn3)cc2-c2ccnc(-c3nc4c([nH]3)CN(S(C)(=O)=O)C4)c2)n1` [Compound 53, 2-[4-(3-(6-Methylpyridin-2-yl)-1-(pyridin-2-ylmethyl)-1H-pyrazol-4-yl)pyridin-2-yl]-5-(methylsulfonyl)-1,4,5,6-tetrahydropyrrolo[3,4-d]imidazole], inhibition was half-maximal at 2.5 nM (IC50).

Take `Cc1cccc(-c2nn(Cc3cccnc3)cc2-c2ccnc(-c3nc4c([nH]3)CN(S(C)(=O)=O)C4)c2)n1` [Compound 54, 2-[4-(3-(6-Methylpyridin-2-yl)-1-(pyridin-3-ylmethyl)-1H-pyrazol-4-yl)pyridin-2-yl]-5-(methylsulfonyl)-1,4,5,6-tetrahydropyrrolo[3,4-d]imidazole]: half-maximal inhibition (IC50) required 1.4 nM.

With `Cc1cccc(-c2nn(Cc3ccncc3)cc2-c2ccnc(-c3nc4c([nH]3)CN(S(C)(=O)=O)C4)c2)n1` [Compound 55, 2-[4-(3-(6-Methylpyridin-2-yl)-1-(pyridin-4-ylmethyl)-1H-pyrazol-4-yl)pyridin-2-yl]-5-(methylsulfonyl)-1,4,5,6-tetrahydropyrrolo[3,4-d]imidazole], the IC50 is 5 nM.

`Cc1cccc(-c2nn(C)cc2-c2ccnc(-c3nc4c([nH]3)CN(C(=O)N(C)C)C4)c2)n1` [Compound 58, N,N-Dimethyl-2-(4-(1-methyl-3-(6-methylpyridin-2-yl)-1H-pyrazol-4-yl)pyridin-2-yl)-4,6-dihydropyrrolo[3,4-d]imidazol-5(1H)-carboxamide]: the IC50 was 1.8 nM.

Take `Cc1cccc(-c2n[nH]cc2-c2ccnc(-c3nc4c([nH]3)CN(C(=O)N(C)C)C4)c2)n1` [Compound 59, N,N-Dimethyl-2-(4-(3-(6-methylpyridin-2-yl)-1H-pyrazol-4-yl)pyridin-2-yl)-4,6-dihydro pyrrolo[3,4-d]imidazol-5(1H)-carboxamide]: the IC50 was 9.2 nM.

In the case of `CCn1cc(-c2ccnc(-c3nc4c([nH]3)CN(C(=O)N(C)C)C4)c2)c(-c2cccc(C)n2)n1` [Compound 60, 2-(4-(1-Ethyl-3-(6-methylpyridin-2-yl)-1H-pyrazol-4-yl)pyridin-2-yl)-N,N-dimethyl-4,6-dihydropyrrolo[3,4-d]imidazol-5(1H)-carboxamide], 1.8 nM corresponded to half-maximal inhibition (IC50).

As for `Cc1cccc(-c2nc3n(c2-c2ccnc(-c4nc5c([nH]4)CN(S(C)(=O)=O)CC5)c2)CCC3)n1` [Compound 63, 2-(4-(2-(6-methylpyridin-2-yl)-6,7-dihydro-5H-pyrrolo[1,2-a]imidazol-3-yl)pyridin-2-yl)-5-(methylsulfonyl)-4,5,6,7-tetrahydro-3H-imidazolo[4,5-c]pyridine], the IC50 was found to be 1.6 nM.

Turning to `Cc1cccc(-c2nc3n(c2-c2ccnc(-c4nc5c([nH]4)CN(C(=O)CC#N)C5)c2)CCC3)n1` [Compound 64, 3-(2-(4-(2-(6-Methylpyridin-2-yl)-6,7-dihydro-5H-pyrrolo[1,2-a]imidazol-3-yl)pyridin-2-yl)-4,6-dihydropyrrolo[3,4-d]imidazol-5(1H)-yl)-3-oxopropanenitrile], inhibition was half-maximal at 7.3 nM (IC50).

As for `Cc1cccc(-c2nn3c(c2-c2ccnc(-c4nc5c([nH]4)CN(C(=O)C4CC(O)C4)C5)c2)CCC3)n1` (stereo not drawn) [Compound 65, (3-Hydroxycyclobutyl)(2-(4-(2-(6-methylpyridin-2-yl)-5,6-dihydro-4H-pyrrolo[1,2-b]pyrazol-3-yl)pyridin-2-yl)-4,6-dihydropyrrolo[3,4-d]imidazol-5(1H)-yl)ketone], the IC50 stood at 0.7 nM.
